Experiments:
[1] = system: switchgrass shoots; settings: 8 weeks (12 weeks to plant), 29° C., BAP as only plant hormone; cited from earlier work
[2] = system: switchgrass shoots; assay: In vitro shoot multiplication of switchgrass in culture media; assay type: cell-based, Panicum virgatum L.
Protocol: A drawback of the use of known propagation conditions is a limited shoot multiplication rate. […] Alexandrova described how to multiply up to 500 shoots from one plant in 8 weeks (12 weeks to plant) at 29° C. and used only one plant hormone Benzylaminopurine (BAP) for multiplication of switchgrass shoots (Alexandrova et al. 1996). However, it has been discovered that 31° C. is a preferable temperature for multiplication of switchgrass shoots. It has also been discovered that liquid medium is preferable for increased multiplication. Applicants optimized multiplication of Switchgrass shoots with a combination of several plant hormones Benzylaminopurine+Naphthaleneacetic acid+Thidiazuron+Paclobutrazol (BAP+NAA+TDZ+PBZ).
It was discovered that an increase in the amount of 6 micro-elements restored growth to shoots and prevented shoot death and, in particular, an increase in the amount of CuSO4.7H2O added to the media increased multiplication rates increased up to about 7× every 3 weeks. MS media contains 0.025 mg/L CuSO4.7H2O. An increase of up to about 10× every 3 weeks in multiplication rate was achieved when shoots were broken apart every 2-3 weeks. […]

[3] = system: Miscanthus shoots; assay: In vitro shoot multiplication of Miscanthus in culture media; assay type: cell-based, Miscanthus × giganteus; settings: high TDZ (1.65 mg/L) compared with about 0.25 mg/L TDZ, media at 31° C.
Protocol: In propagating Miscanthus stem nodes in culture media, Nielsen used high amounts of Thidiazuron (TDZ) (1.65 mg/L), which is a cost limiting hormone additive in shoot multiplication growth media (Nielsen et. al. 1993; Nielsen et. al. 1995).
Stems of actively growing Miscanthus × giganteus having dormant nodes were harvested and sterilized using 1.5% sodium hypochlorite (25% bleach) solution followed by three rinses using sterile water. Stem segments comprising nodes were cut to 3 cm long and then cut longitudinally down the center of the each stem. The prepared stem portions were then placed under growth conditions of 50 μE of light and a 16 h day. The temperature was 31° C. Stem segments were grown in […] Petri plates for solid culture, however any suitable sterile container can be used for solid or liquid culture. Time between sub-culturing was 14-21 days. Shoots were cut to 3-4 cm in length when sub-culturing.
The media used for the above-described growth conditions comprised MS medium plus vitamins (full strength) (Phytotechnologies™ Product ID-M519), 30 g/L sucrose (87.7 mM), […] MgCl2 (750 mg/L of MgCl2.6H2O), pH 5.6 for semi-solid media, […], and 6 g/L agar. The following hormones were added after autoclaving of the media. […]

For `c1ccc(CNc2ncnc3[nH]cnc23)cc1` [BAP, Benzylaminopurine], the “shoots multiplied from one plant” value [1] is given as “up to 500 shoots”.

For `O.O.O.O.O.O.O.O=S(=O)([O-])[O-].[Cu+2]` [CuSO4.7H2O], the shoot multiplication rate ([2]; increased CuSO4.7H2O, shoots broken apart every 2-3 weeks) was “about 10 × every 3 weeks” and the shoot multiplication rate ([2]; increased amount of CuSO4.7H2O added to the media (MS media contains 0.025 mg/L)) was “about 7 × every 3 weeks”.

In the case of `O=C(Nc1ccccc1)Nc1cnns1` [TDZ, Thidiazuron], the “shoot thickness and shoot production” value [3] is reported as “multiplied shoots were thinner and shoot production was less”.

Source: US20110239332A1, “PROPAGATION OF SWITCHGRASS AND MISCANTHUS” (priority 2008, published 2011)
